Reference: the NIST ThermoML archive (doi:10.1016/j.jct.2011.05.018)

Assay: xn = mol fraction of the nth substance listed
Details: 101 kPa, Liquid; for viscosity: Capillary tube (Ostwald / Ubbelohde) method; for speed of sound: Pulse-echo method; for mass density: Pycnometric method

Cc1ccccc1O [2-methylphenol] + COc1ccc(C=O)cc1
x2 = 0
Details	mass density [kg/m3]	speed of sound [m/s]	viscosity [mPa·s]
303.15 K	1036.2	1485.3	7.479
308.15 K	1031	1466.8	5.963
313.15 K	1026	1452.1	4.238
318.15 K	1021.1	1437.1	2.215

Cc1cccc(O)c1 [3-methylphenol] + COc1ccc(C=O)cc1
x2 = 0
Details	mass density [kg/m3]	speed of sound [m/s]	viscosity [mPa·s]
303.15 K	1025.8	1464.2	8.929
308.15 K	1021.5	1449.3	7.412
313.15 K	1017	1436.3	6.116
318.15 K	1013.5	1424.2	5.019

COc1ccc(C=O)cc1 [4-methoxybenzaldehyde] + Cc1ccc(O)cc1
Details	mass density [kg/m3]	speed of sound [m/s]	viscosity [mPa·s]
303.15 K, x1 = 0.0882	1032.1	1492	9.142
303.15 K, x1 = 0.1788	1038.5	1511.2	8.618
303.15 K, x1 = 0.2717	1044.6	1532.1	8.086
303.15 K, x1 = 0.3673	1053	1553.5	7.524
303.15 K, x1 = 0.4654	1061.2	1575.9	7.064
303.15 K, x1 = 0.5663	1068.4	1599.1	6.543
303.15 K, x1 = 0.6701	1076.7	1622.7	5.753
303.15 K, x1 = 0.7769	1089.3	1646.6	5.04
303.15 K, x1 = 0.8868	1105.6	1671.3	4.265
303.15 K, x1 = 1	1125.2	1694.3	3.251
308.15 K, x1 = 0.0882	1027.7	1477	7.824
308.15 K, x1 = 0.1788	1033	1496.4	7.419
308.15 K, x1 = 0.2717	1038.6	1516.2	7.002
308.15 K, x1 = 0.3673	1045.9	1536.6	6.568
308.15 K, x1 = 0.4654	1053	1558	6.218
308.15 K, x1 = 0.5663	1060.5	1580.1	5.826
308.15 K, x1 = 0.6701	1066.8	1602.5	5.158
308.15 K, x1 = 0.7769	1077.5	1625.2	4.604
308.15 K, x1 = 0.8868	1093	1648.6	3.965
308.15 K, x1 = 1	1111.6	1670.7	3.131
313.15 K, x1 = 0.0882	1024.2	1462.2	6.529
313.15 K, x1 = 0.1788	1029.7	1479.1	6.242
313.15 K, x1 = 0.2717	1035.9	1496.4	5.913
313.15 K, x1 = 0.3673	1044	1514.2	5.582
313.15 K, x1 = 0.4654	1050.3	1533	5.339
313.15 K, x1 = 0.5663	1057.6	1552.4	5.07
313.15 K, x1 = 0.6701	1065.6	1572	4.541
313.15 K, x1 = 0.7769	1076.5	1591.7	4.099
313.15 K, x1 = 0.8868	1091.7	1612	3.609
313.15 K, x1 = 1	1109.5	1631.3	2.961
318.15 K, x1 = 0.0882	1020	1445.1	5.316
318.15 K, x1 = 0.1788	1027.2	1456.5	5.115
318.15 K, x1 = 0.2717	1033.9	1467.9	4.87
318.15 K, x1 = 0.3673	1042.1	1479.6	4.616
318.15 K, x1 = 0.4654	1048.9	1492.3	4.431
318.15 K, x1 = 0.5663	1055.4	1505.4	4.259
318.15 K, x1 = 0.6701	1063	1518.5	3.861
318.15 K, x1 = 0.7769	1073.7	1531.2	3.523
318.15 K, x1 = 0.8868	1088.9	1544.7	3.163
318.15 K, x1 = 1	1104.7	1557	2.682
